Experimental data as given in US4211773A, “5-Substituted 1-(2'-Deoxy-2'-substituted-β-D-arabinofuranosyl)pyrimidine nucleosides” (Sloan Kettering Institute for Cancer Research, priority 1978, dated 1980).
≈ marks a conversion by molar mass, not a printed value. Like-named read-outs stand apart in the source and are kept apart here.

How the values were obtained:
[1] = tested on: Herpes Simplex Virus - type 1; assay: Inhibition of Herpes Simplex Virus type 1 replication (effective doses); type: cell-based; settings: for EC50: read-out: ED50 (the source's name)
Method: (§1) Compounds of the invention show anti-viral and anti-tumor activity. 1-(2-Deoxy-2-fluoro-β-D-arabinofuranosyl)-5-iodocytosine inhibits Herpes Simplex Virus type 1 and type 2 replication. HFEM, Patton, 2931, and F-strain HSV-1 and 333 and G-strain HSV-2 are affected at concentrations of 1-(2-deoxy-2-fluoro-β-D-arabinofuranosyl)-5-iodocytosine 0.01 μM (approximately 0.004 μg/ml).
(§2) The effective doses for 1-(2-deoxy-2-fluoro-β-D-arabinofuranosyl)-5-iodocytosine are given below. 1-(2-deoxy-2-fluoro-β-D-arabinofuranosyl)-5-iodocytosine is diluted in physiological saline, filter sterilized, and inoculated. This compound is readily soluble at concentrations of 25 mg/ml in saline. In mouse studies, the drug is inoculated by the intraperitoneal route.

HSV-1 strain 2931 = assay: In vivo activity in A/J mice infected with HSV-1 strain 2931; settings: for mice surviving the 21 day experiment: starting 24 hours after inoculation
Method: as §2
1-(2-deoxy-2-fluoro-β-D-arabinofuranosyl)-5-iodocytosine was also shown to be active in vivo. A/J mice were inoculated with approximately 50 LD50 of HSV-1 strain 2931 intraperitoneally and then treated with 1-(2-deoxy-2-fluoro-β-D-arabinofuranosyl)-5-iodocytosine starting 24 hours later. 1-(2-deoxy-2-fluoro-β-D-arabinofuranosyl)-5-iodocytosinewas given at 10 and 1 mg/kg/da for 5 days. Untreated mice died 8 days after inoculation. Five of 10 mice treated with 10 mg/kg/day survived the 21 day experiment. Two of 10 treated with 1 mg/kg/da survival the 21 day experiment and the remainder died an average of 10 days after inoculation.

[2] = tested on: K 562 cells, a cell line of chronic myologenous leukemia cells; assay: Suppression of replication of K 562 cells in vitro; type: cell-based; settings: Homo sapiens, K562, read-out: concentration found to suppress replication of K 562 cells
Method: Since 1-(2-deoxy-2-fluoro-β-D-arabinofuranosyl)-5-iodocytosine was active against a virus which uses fetal thymidine kinase and since many tumor cells express high concentrations of fetal thymidine kinase, it was tested as a selective anti-tumor agent.

Solubility in saline = type: physicochemical; settings: read-out: readily soluble at concentrations of
Method: as §2

[3] = Toxicity to normal lymphoblastoid cells; type: cell-based; settings: read-out: not toxic at concentrations of up to
Method: Since 1-(2-deoxy-2-fluoro-β-D-arabinofuranosyl)-5-iodocytosine was not toxic to normal lymphoblastoid cells at concentrations of up to 10 μM, the compound is believed to affect tumor cells at concentrations 1/100th those needed to suppress normal cell replication. Compounds of the invention can be used as a selective treatment for tumors expressing the fetal thymidine kinase which includes most tumors.

[4] = tested on: Cytomegalovirus (CMV strain AD 169); assay: Effective dose against Cytomegalovirus strain AD-169; CMV plaque formation on WI-38 cells; type: cell-based; settings: for minimal effective concentration: Human betaherpesvirus 5, CMV strain AD 169, WI-38 cells
Method: as §2

[5] = tested on: Herpes Simplex Virus - type 2; assay: Inhibition of Herpes Simplex Virus type 2 replication (effective doses); type: cell-based; settings: for EC50: read-out: ED50 (the source's name)
Method: as §1, §2

P815 = assay: Cytotoxicity, inhibition of growth of P815 cells in vitro; type: cell-based; settings: Mus musculus, 96 hrs. incubation at 37° C., read-out: Cytoxicity ID50
Method: (§3) *****Concentration required for 50% inhibition of growth of cells in
(§4) vitro after 96 hrs. incubation at 37° C.

[6] = tested on: thymidine kinase negative strain of HSV-1 (HSV-1 TK^-); assay: Activity against thymidine kinase negative HSV-1; type: cell-based; settings: Human alphaherpesvirus 1, read-out: not affected at concentrations of up to
[7] = tested on: Herpes Simplex Virus--Type 1 (HSV-1) strain 2931; assay: Capacity to suppress HSV-1 replication in monolayers of Vero cells; type: cell-based; settings: 24 hr, read-out: Anti-viral Activity (% reduction of HSV1 titer)
Method: The capacity of 2'-fluoro-arabinosyl nucleosides (Formulas IV and V shown below) to suppress replication of Herpes Simplex virus-type 1 (HSV-1) in monolayers of Vero cells is shown in Table I.
Vero cell monolayers were infected with approximately 1 plaque forming unit (PFU) per cell of Herpes Simplex Virus--Type 1 (HSV-1) strain 2931 and incubated for 2 hr. Maintenance media containing the various concentrations of drugs were used to overlay the monolayers. Supernatant fluids were collected 24 hr. later and titered on Vero cell monolayers described in Lopez et al, Ann. N.Y. Acad. Sci., 284, 351 (1977). Percent inhibition over controls was calculated.

L51784 = assay: Cytotoxicity, inhibition of growth of L51784 cells in vitro; type: cell-based; settings: 96 h, read-out: Cytoxicity ID50
Method: as §3, §4

SMILES: Nc1nc(=O)n([C@@H]2O[C@H](CO)[C@@H](O)[C@@H]2F)cc1I [IVe, 1-(2-deoxy-2-fluoro-β-D-arabinofuranosyl)-5-iodocytosine]
- EC50 ([1]; Human alphaherpesvirus 1, HSV-1 strain 2931): 7 nM
- EC50 ([1]; Human alphaherpesvirus 1, HSV-1 strain HFEM): < 10 nM
- EC50 ([1]; Human alphaherpesvirus 1, HSV-1 strain McIntyre): < 10 nM
- EC50 ([1]; Human alphaherpesvirus 1, HSV-1 strain Patton): 10 nM
- minimal effective concentration ([1]; Human alphaherpesvirus 1, HFEM, Patton, 2931 and F-strain HSV-1, read-out: concentration at which HSV-1 strains are affected): 0.01 µM
- average time of death after inoculation (non-surviving mice) (HSV-1 strain 2931; 1 mg/kg/da for 5 days, intraperitoneal, remainder of mice): 10 days
- mice surviving the 21 day experiment (HSV-1 strain 2931; 1 mg/kg/da for 5 days, intraperitoneal): Two of 10
- mice surviving the 21 day experiment (HSV-1 strain 2931; 10 mg/kg/day for 5 days, intraperitoneal): Five of 10
- in vivo activity against HSV-1 (HSV-1 strain 2931; 10 and 1 mg/kg/da for 5 days): active in vivo against HSV-1
- minimal effective concentration [2]: 0.04 µg/mL
- solubility (Solubility in saline): ≥ 25 mg/mL
- MNTC [3]: > 10 µM
- EC50 ([4]; Human betaherpesvirus 5, AD169, WI-38, CMV strain AD-169, read-out: ED50 (the source's name)): 1000 nM
- minimal effective concentration ([4]; read-out: concentration found to reduce CMV plaque formation): 1 µM
- minimal effective concentration ([4]; read-out: concentration found to reduce CMV plaque formation (mass units)): 0.4 µg/mL
- EC50 ([5]; Human alphaherpesvirus 2, HSV-2 strain 333): 50 nM
- EC50 ([5]; Human alphaherpesvirus 2, HSV-2 strain G): 10 nM
- minimal effective concentration ([5]; Human alphaherpesvirus 2, 333 and G-strain HSV-2, read-out: concentration at which HSV-2 strains are affected): 0.01 µM
- IC50 (P815): 14 µg/mL (≈ 37.7 µM)
- minimal effective concentration [6]: > 10 µM
- activity at 0.01 µg/mL ([7]; Human alphaherpesvirus 1, 0.01 μg/ml): 90 to 99%
- activity at 0.1 µg/mL ([7]; Human alphaherpesvirus 1, 0.1 μg/ml): 99 to 99.9%
- activity at 1 µg/mL ([7]; Human alphaherpesvirus 1, 1.0 μg/ml): 100%
- activity at 10 µg/mL ([7]; Human alphaherpesvirus 1, 10 μg/ml): 100%
- activity at 100 µg/mL ([7]; Human alphaherpesvirus 1, 100 μg/ml): 100%
- IC50 (L51784): 48 µg/mL (≈ 129 µM)
